Source: article PMC3816002 (Biochimica et biophysica acta, 2013)

Target: T1, CIITA (Homo sapiens, UniProt P33076, G420A/G425A/K426E)
T1 sequence (P33076 1-1130 G420A/G425A/K426E): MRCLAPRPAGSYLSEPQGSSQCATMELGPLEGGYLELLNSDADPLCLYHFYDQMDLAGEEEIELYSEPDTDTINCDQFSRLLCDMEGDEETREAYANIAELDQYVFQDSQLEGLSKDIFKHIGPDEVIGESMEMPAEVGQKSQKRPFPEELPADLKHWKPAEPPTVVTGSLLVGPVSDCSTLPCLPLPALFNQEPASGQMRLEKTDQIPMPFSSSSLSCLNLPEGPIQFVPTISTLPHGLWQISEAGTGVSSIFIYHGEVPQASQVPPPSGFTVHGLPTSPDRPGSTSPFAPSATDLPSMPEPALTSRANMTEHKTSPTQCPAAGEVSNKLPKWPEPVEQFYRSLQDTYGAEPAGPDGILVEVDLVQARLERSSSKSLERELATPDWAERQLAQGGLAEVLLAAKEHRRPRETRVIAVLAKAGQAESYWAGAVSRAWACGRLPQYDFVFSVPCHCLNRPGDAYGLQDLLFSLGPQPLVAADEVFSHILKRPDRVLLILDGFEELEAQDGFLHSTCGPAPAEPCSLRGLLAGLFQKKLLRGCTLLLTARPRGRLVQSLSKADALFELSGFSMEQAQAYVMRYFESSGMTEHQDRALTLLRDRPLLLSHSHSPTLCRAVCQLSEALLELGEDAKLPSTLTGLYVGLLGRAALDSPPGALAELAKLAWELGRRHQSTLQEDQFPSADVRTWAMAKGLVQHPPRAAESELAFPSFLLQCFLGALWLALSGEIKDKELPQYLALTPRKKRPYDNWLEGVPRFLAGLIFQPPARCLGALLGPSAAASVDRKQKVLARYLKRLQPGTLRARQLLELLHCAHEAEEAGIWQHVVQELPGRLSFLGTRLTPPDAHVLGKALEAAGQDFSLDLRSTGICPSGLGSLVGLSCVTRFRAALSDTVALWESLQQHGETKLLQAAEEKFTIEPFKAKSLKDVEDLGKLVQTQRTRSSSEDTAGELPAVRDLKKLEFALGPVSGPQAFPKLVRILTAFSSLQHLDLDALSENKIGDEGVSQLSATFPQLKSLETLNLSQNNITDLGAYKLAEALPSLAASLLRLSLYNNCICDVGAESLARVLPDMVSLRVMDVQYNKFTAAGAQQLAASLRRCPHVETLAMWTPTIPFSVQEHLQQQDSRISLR
Test: […] autophosphorylation kinase assay, SDS-PAGE, phosphorimager
Type: biochemical
Conditions: labelled compound; 5 mM MnCl2, 5 mM MgCl2, pH 7.5, 30 °C

Nc1ncnc2c1ncn2[C@@H]1O[C@H](COP(=O)(O)OP(=O)(O)OP(=O)(O)O)[C@@H](O)[C@H]1O [ATP]
32P autophosphorylation kinase assay, SDS-PAGE, phosphorimager: No loss of kinase activity was detected in the putative ATP binding site mutant
